Converted amounts (≈) assume the structure as drawn. “And” between values parts separate entries of the source, which are not always exact repeats. Identical values can stand only once. The source made the active and inactive calls. No cut-off for these calls is given here.
Tests used:
[1] = system: Mycobacterium tuberculosis; test: Antibacterial activity against Mycobacterium tuberculosis H37Rv assessed as inhibition of bacterial growth by microplate alamar blue assay; format: functional
[2] = system: Mycobacterium tuberculosis; test: Antibacterial activity against Mycobacterium tuberculosis H37Rv assessed as inhibition of bacterial growth by resazurin dye based colorimetric analysis; format: functional, organism-based
[3] = system: Mycobacterium tuberculosis; test: Antibacterial activity against Mycobacterium tuberculosis H37Rv assessed as inhibition of bacterial growth; format: functional, organism-based
DNA gyrase = DNA gyrase (Escherichia coli, UniProt P0AES4+P0AES6); test: Inhibition of Escherichia coli DNA gyrase; format: protein-complex assay
[4] = Selectivity index, ratio of IC50 for cytotoxicity against African green monkey Vero cells to MIC for antibacterial activity against Mycobacterium tuberculosis H37Rv; format: toxicity, cell-based; conditions: read-out: Selectivity Index
[5] = Cytotoxicity against African green monkey Vero cells assessed as inhibition of cell growth; format: toxicity, cell-based; conditions: African green monkey (Chlorocebus sabaeus)
[6] = system: Mycobacterium tuberculosis; test: Antibacterial activity against Mycobacterium tuberculosis H37Rv infected in Macrophage assessed as reduction in bacterial growth; format: functional
[7] = Microsomal stability in human liver microsomes assessed as half life at 0.1 uM incubated for 60 mins in presence of NADPH by LC-MS/MS analysis; format: ADME, Microsome
[8] = system: Mycobacterium tuberculosis; test: Antibacterial activity against drug-sensitive Mycobacterium tuberculosis assessed as inhibition of bacterial growth; format: functional
[9] = system: Mycobacterium tuberculosis; test: Antibacterial activity against Mycobacterium tuberculosis H37Rv ATCC 27294 assessed as inhibition of bacterial growth; format: functional
[10] = Inhibition of Mycobacterium tuberculosis salicylate synthase using chorismic acid as substrate in presence of MgCl2 by fluorimetric assay
RAW264.7 = test: Cytotoxicity against mouse RAW264.7 cells assessed as cell growth inhibition by MTT assay relative to control; format: functional
[11] = Inhibition of Mycobacterium tuberculosis H37Rv mc2 6206 HadA/B expressed in Escherichia coli using trans-2-hexadecenoyl-coenzyme A as substrate by spectrophotometric analysis
[12] = system: Mycobacterium tuberculosis; test: Inhibition of Mycobacterium tuberculosis H37Rv mc2 6206 HadB/C expressed in Escherichia coli using trans-2-hexadecenoyl-coenzyme A as substrate by spectrophotometric analysis
[13] = system: Mycobacterium tuberculosis; test: Antibacterial activity against Mycobacterium tuberculosis H37Rv assessed as bacterial growth inhibition at less than 6.25 ug/ml relative to control; format: functional; conditions: read-out: GI
[14] = system: Mycobacterium tuberculosis; test: Antibacterial activity against drug susceptible Mycobacterium tuberculosis H37Rv assessed as inhibition of bacterial growth; format: functional
Thymidylate kinase = target: T1, Thymidylate kinase (Mycobacterium tuberculosis, UniProt P9WKE1); test: Inhibition of Mycobacterium tuberculosis TMPK
T1 sequence (P9WKE1 whole entry): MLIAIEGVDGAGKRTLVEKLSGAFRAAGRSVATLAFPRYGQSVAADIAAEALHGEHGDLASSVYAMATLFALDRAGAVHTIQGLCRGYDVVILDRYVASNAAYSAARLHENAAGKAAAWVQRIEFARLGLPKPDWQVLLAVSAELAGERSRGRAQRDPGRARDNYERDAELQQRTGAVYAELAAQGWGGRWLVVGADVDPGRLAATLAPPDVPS

[15] = target: T2, Enoyl-[acyl-carrier-protein] reductase [NADH] (Mycobacterium tuberculosis, UniProt P9WGR1); test: Inhibition of Mycobacterium tuberculosis InhA
T2 sequence (P9WGR1 whole entry): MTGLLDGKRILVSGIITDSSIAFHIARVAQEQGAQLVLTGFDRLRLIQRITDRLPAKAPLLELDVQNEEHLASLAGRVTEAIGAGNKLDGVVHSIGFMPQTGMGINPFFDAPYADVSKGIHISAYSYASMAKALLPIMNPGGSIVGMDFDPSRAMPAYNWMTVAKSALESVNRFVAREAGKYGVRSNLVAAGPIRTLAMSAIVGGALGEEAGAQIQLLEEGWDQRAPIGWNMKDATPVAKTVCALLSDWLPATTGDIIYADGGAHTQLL

Pantothenate synthetase = target: T3, Pantothenate synthetase (Mycobacterium tuberculosis, UniProt P9WIL5); test: Inhibition of Mycobacterium tuberculosis H37Ra pantothenate synthetase
T3 sequence (P9WIL5 whole entry): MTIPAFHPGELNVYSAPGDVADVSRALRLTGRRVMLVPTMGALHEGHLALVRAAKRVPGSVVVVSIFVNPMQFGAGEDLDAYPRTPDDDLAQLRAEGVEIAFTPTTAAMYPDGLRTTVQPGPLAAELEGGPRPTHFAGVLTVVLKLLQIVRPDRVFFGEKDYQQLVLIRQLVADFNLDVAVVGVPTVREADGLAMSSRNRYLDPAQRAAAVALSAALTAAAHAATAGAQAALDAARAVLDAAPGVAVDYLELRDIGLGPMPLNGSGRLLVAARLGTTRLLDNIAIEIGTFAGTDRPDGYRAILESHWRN

[16] = system: Mycobacterium tuberculosis; test: Antibacterial activity against Mycobacterium tuberculosis H37Ra assessed as inhibition of bacterial growth; format: functional
[17] = system: Mycobacterium tuberculosis; test: Antibacterial activity against wild-type Mycobacterium tuberculosis H37Rv assessed as inhibition of bacterial growth; format: functional
[18] = system: Mycobacterium tuberculosis; test: Antibacterial activity against Mycobacterium tuberculosis H37Rv assessed as inhibition of bacterial growth by broth microdilution assay; format: functional
Staphylococcus aureus = test: Antibacterial activity against methicillin-resistant Staphylococcus aureus 693E assessed as inhibition of bacterial growth by broth microdilution assay; format: functional
[19] = system: Mycobacterium tuberculosis; test: Antibacterial activity against Mycobacterium tuberculosis assessed as inhibition of bacterial growth; format: functional, organism-based
[20] = Cytotoxicity against human WI-38 cells assessed as inhibition of cell growth by MTT assay; format: toxicity, cell-based
[21] = system: Mycobacterium tuberculosis; test: Antibacterial activity against Mycobacterium tuberculosis assessed as inhibition of bacterial growth by microplate alamar blue assay; format: functional

NNC(=O)c1ccncc1 [ISONIAZID]
MIC [1]: 1.6 µg/mL | IC50 [2]: 1.6 µg/mL (≈ 11.7 µM) | MIC [3]: 15.6 µg/mL

Clc1ccc(Cn2cc(COc3ccc(C4=NCCO4)cc3)nn2)cc1
IC50 (DNA gyrase): 83 nM | IC50 [3]: 1600 nM

O=C1C(C#Cc2ccccc2)=C(c2ccc(C(F)(F)F)cc2)C(=O)N1Cc1ccccn1
selectivity ratio [4]: 69.6 | IC50 [5]: > 64 µg/mL | Activity [6]: 0.47 log10CFU | MIC [3]: 0.92 µg/mL

CC(=O)c1c(C)n(-c2ccc(C3CCNCC3)cc2)c2ccc(O)c(CN3CCCCC3)c12
half-life at 0.1 µM [7]: 58 min | MIC [1]: 0.125 µg/mL

CC(=O)c1ccc(N2CN=c3s/c(=C/c4ccco4)c(=O)n3C2)cc1
MIC [8]: 2.49 µg/mL (≈ 7.05 µM)

CO[C@H]1/C=C/O[C@@]2(C)Oc3c(C)c(O)c4c(O)c(c(/C=N/N5CCN(C)CC5)c(O)c4c3C2=O)NC(=O)/C(C)=C\C=C\[C@H](C)[C@H](O)[C@@H](C)[C@@H](O)[C@@H](C)[C@H](OC(C)=O)[C@@H]1C [RIFAMPIN]
MIC [3]: 0.97 µg/mL

CC(=O)NC[C@H]1CN(c2ccc(N3CCOCC3)c(F)c2)C(=O)O1 [LINEZOLID]
MIC [3]: 1 µg/mL

CC1/C(=N\NC(N)=[Se])Nc2ccccc21 (stereo not drawn)
MIC [1]: 1.6 µg/mL

O=C1Nc2ccccc2/C1=N\OCc1cn(Cc2ccc(F)cc2)nn1
MIC [9]: 0.78 µg/mL (≈ 2.22 µM)

Cc1cc(C(=O)N2CCN(c3nc(=O)c4cc(Br)cc([N+](=O)[O-])c4s3)CC2)c2cc(Cl)ccc2n1
MIC [3]: 0.12 µg/mL

N#Cc1cc(OCCOc2ccccc2)cc(-c2ccc(C(=O)O)o2)c1
IC50 [10]: 12100 nM

CN1CCN(C(=O)c2cc3ccccc3[nH]2)CC1
MIC [1]: 3.12 µg/mL | growth inhibition (GI) (RAW264.7): 32%

CS(=O)(=O)N1CCN(c2ccc(N3C[C@H](CNC(=O)c4ccc([N+](=O)[O-])o4)OC3=O)cc2F)CC1
MIC [3]: 1.1 µg/mL

Cc1cc(C(=O)N2CCN(c3nc(=O)c4cc(C(F)(F)F)cc([N+](=O)[O-])c4s3)CC2)c2cc(Br)ccc2n1
MIC [3]: 0.12 µg/mL

CS(=O)(=O)NC(=O)CCc1cn(-c2ccc(Br)cc2)nc1-c1ccc(Cl)cc1
IC50 [11]: 130 nM | inhibition [12]: inactive

C[C@H]1S[C@]2(CC[C@@H](c3ccccc3)CC2)N(NC(=O)[C@@H](O)c2ccccc2)C1=O
inhibition of growth at 6.25 µg/mL [13]: 98% | MIC [3]: < 6.25 µg/mL

COC(=O)c1cc(-c2ccc(OC)c(NC(=O)c3cc(-c4cccc(Cl)c4)nc4ccccc34)c2)on1
MIC [14]: 0.12 µg/mL (≈ 0.233 µM)

O=C1C(Cl)=C(Cl)C2(OC(c3c(Cl)cccc3Cl)=NN2c2ccccc2)c2ccccc21 (stereo not drawn)
MIC [3]: 15.6 µg/mL

Cc1cn([C@H]2C[C@H](O)[C@@H](COP(=O)(O)O)O2)c(=O)[nH]c1=O [THYMIDINE MONOPHOSPHATE]
IC50 (Thymidylate kinase): 70 nM

O=C(/C=C/c1cc(Cl)ccc1O)c1ccc(Br)cc1
MIC [1]: 6.25 µg/mL

CC(C)(C)OC(=O)N1CCN(c2ccc(N3C[C@H](CNC(=O)c4ccc([N+](=O)[O-])o4)OC3=O)cc2F)CC1
MIC [3]: 2.34 µg/mL

O=C(/C=C/c1ccccc1)c1ccc(Br)cc1
MIC [1]: 6.25 µg/mL

Cc1cc(C(=O)N2CCN(c3nc(=O)c4cc(Cl)cc([N+](=O)[O-])c4s3)CC2)c2cc(Cl)ccc2n1
MIC [3]: 0.06 µg/mL

CCOC(=O)Cc1csc(N2C(=O)CSC2c2ccc(Br)cc2)n1 (stereo not drawn)
MIC [8]: 0.48 µg/mL (≈ 1.12 µM) | IC50 [15]: 1060 nM

Cc1nc2sc3ccccc3n2c1C(=O)N1CCN(Cc2cn(-c3ccc(Cl)cc3Cl)nn2)CC1
IC50 (Pantothenate synthetase): 2030 nM | IC50 [2]: 1.6 µg/mL (≈ 3.04 µM) | IC90 [16]: 15200 nM

Cc1cc(C(=O)N2CCN(c3nc(=O)c4cc(Br)cc([N+](=O)[O-])c4s3)CC2)c2cc(Br)ccc2n1
MIC [3]: 0.12 µg/mL

C/C(=N\N=C(\N/N=C(\C)c1ccc(Cl)cc1)NC(=S)Nc1cccc2ccccc12)c1ccc(Cl)cc1
MIC [3]: 0.78 µM

O=C(c1ccc(Cl)cc1)C1[C@H]2CCCN2[C@]2(C(=O)Nc3ccc(Cl)cc32)C12c1ccccc1-n1c2nc2ccccc2c1=O (stereo partly drawn)
MIC [3]: 1.56 µg/mL

Cc1cc(C(=O)N2CCN(c3nc(=O)c4cc(F)cc([N+](=O)[O-])c4s3)CC2)c2cc(Br)ccc2n1
MIC [3]: 0.06 µg/mL

Cc1cc(C(=O)N2CCN(c3nc(=O)c4cc(C(F)(F)F)cc([N+](=O)[O-])c4s3)CC2)c2cc(Cl)ccc2n1
MIC [3]: 0.12 µg/mL

O=C(/C=C/c1cccc(Oc2ccccc2)c1)c1ccc(Br)cc1
MIC [1]: 6.25 µg/mL

CC[C@@H](CO)NCCN[C@@H](CC)CO [ETHAMBUTOL]
MIC [1]: 7.64 µM and 1.6 µg/mL

Cc1nc2cc(C(F)(F)F)ccc2n1-c1ncc(C(F)(F)F)s1
MIC [3]: 0.28 µM

CCOC(=O)C1=C(C)NC(=O)NC1c1ccccc1OCc1cn(CC(=O)c2ccc(Cl)cc2)nn1 (stereo not drawn)
MIC [1]: 6.13 µM

COc1ccc(-c2nn(-c3ccc([N+](=O)[O-])cc3[N+](=O)[O-])c(N)c2C#N)cc1Oc1cccc(Br)c1C#N
MIC [8]: 0.98 µg/mL (≈ 1.7 µM) | IC50 [15]: 290 nM

COc1ccc(NC(=O)CCCCCN/C(C)=C2/C(=O)C=C3Oc4c(C(C)=O)c(O)c(C)c(O)c4[C@]3(C)C2=O)cc1OC
MIC [3]: 5.3 µM

O=c1/c(=C\c2ccc(Cl)cc2)sc2n1CN(C1=NS(=O)(=O)c3ccccc31)CN=2
MIC [8]: 2.28 µg/mL (≈ 5.12 µM)

O=C(Nc1ccc(C(=O)O)c(O)c1)c1cncc(Cl)n1
MIC [3]: 3.13 µg/mL

CCCCCCc1ccc(-c2cn(CC(=O)Cn3ccnc3[N+](=O)[O-])nn2)cc1
MIC [3]: 65.3 µM

CCOC(=O)Cc1csc(N2C(=O)CSC2c2ccc(OC)cc2)n1 (stereo not drawn)
MIC [8]: 0.12 µg/mL (≈ 0.317 µM) | IC50 [15]: 1300 nM

CC(C)/N=c1\cc2n(-c3ccccc3)c3ccccc3nc-2cc1Nc1ccc(N2CCN(C)CC2)c(F)c1
MIC [17]: 0.08 µg/mL (≈ 0.154 µM) | MIC [3]: 0.625 µg/mL

C/C(=N\NC(=S)Nc1cccc(Cl)c1Cl)c1nc2cc([N+](=O)[O-])ccc2[nH]1
MIC [3]: 62.5 µg/mL

CO[C@H]1C[C@@]2(C)C=C[C@H]3[C@H]4O[C@]2(/C(C)=C/[C@@H](C)[C@@H]([C@@H](C)O)OC1=O)[C@@H]3[C@H](O)[C@@H](C)[C@H]4OC(=O)c1ccc[nH]1
MIC [18]: 12.5 µM (≈ 6.62 µg/mL) | MIC (Staphylococcus aureus): 0.6 µM (≈ 0.318 µg/mL)

CC(=O)c1c(C)n(-c2ccc(-c3ccccc3)cc2)c2ccc(O)c(CN3CCCCC3)c12
half-life at 0.1 µM [7]: 20.7 min | MIC [1]: 0.063 µg/mL

Cc1cc(C(=O)N2CCN(c3nc(=O)c4cc(Cl)cc([N+](=O)[O-])c4s3)CC2)c2cc(Br)ccc2n1
MIC [3]: 0.06 µg/mL

Cc1cc(N=Nc2ccc(O)cc2O)ccc1C(C)C
IC50 [19]: 620 nM

O=C(N/N=C1\C(=O)N(Cc2ccccc2)c2ccccc21)c1cnc2cc(Cl)ccc2c1O
IC50 [20]: 36600 nM | MIC [21]: 0.06 µg/mL (≈ 0.131 µM)

O=C(/C=C/c1ccccc1[N+](=O)[O-])c1ccc(Br)cc1
MIC [1]: 6.25 µg/mL

Cc1ccc(C(=O)C2[C@H]3CCCN3[C@]3(C(=O)Nc4ccccc43)C23c2ccccc2-n2c3nc3ccccc3c2=O)cc1 (stereo partly drawn)
MIC [3]: 1.56 µg/mL
